What all share (format): in vivo
In assay [1] the test system is foxtail, green (green foxtail, Setaria viridis). As to the kind of experiment: Test A preemergence, visual plant response rating. To be noted: 500 g ai/ha Preemergence; approx. 10 days. In a few lines:
(§1)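 Formulated in a non-phytotoxic solvent mixture including surfactant, each test chemical was sprayed onto the soil surface after sowing, or onto seedlings 2 to 10 cm high. Roughly 10 days later, plants were compared with untreated controls and rated for injury from 0 (no effect) to 100 (complete control).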

For assay [2], the system named is kochia (Kochia scoparia). As to the kind of experiment: Test A preemergence, visual plant response rating. To be noted: 500 g ai/ha Preemergence; approx. 10 days. In a few lines: as §1
The subject of assay [3] is barnyardgrass (Echinochloa crus-galli). As to the kind of experiment: Test A preemergence, visual plant response rating. To be noted: 500 g ai/ha Preemergence; approx. 10 days. In a few lines: as §1
In assay [4] the test system is Italian ryegrass (Lolium multiflorum). As to the kind of experiment: Test A preemergence, visual plant response rating. To be noted: 500 g ai/ha Preemergence; approx. 10 days. In a few lines: as §1
Assay [5] relates to pigweed (Amaranthus retroflexus). As to the kind of experiment: Test A preemergence, visual plant response rating. To be noted: 500 g ai/ha Preemergence; approx. 10 days. In a few lines: as §1
The subject of assay [6] is ragweed (common ragweed, Ambrosia elatior). As to the kind of experiment: Test A preemergence, visual plant response rating. To be noted: 500 g ai/ha Preemergence; approx. 10 days. In a few lines:
as §1

The subject of another assay is corn (Zea mays). As to the kind of experiment: Test A postemergence, visual plant response rating. To be noted: 500 g ai/ha, postemergence; 0 is no effect, 100 is complete control. In a few lines:
as §1

Assay [7] relates to foxtail, green (green foxtail, Setaria viridis). As to the kind of experiment: Test A postemergence, visual plant response rating. To be noted: 500 g ai/ha, postemergence; 0 is no effect, 100 is complete control. In a few lines:
as §1

For assay [8], the system named is kochia (Kochia scoparia). As to the kind of experiment: Test A postemergence, visual plant response rating. To be noted: 500 g ai/ha, postemergence; 0 is no effect, 100 is complete control. In a few lines: as §1
Assay [9] deals with barnyardgrass (Echinochloa crus-galli). As to the kind of experiment: Test A postemergence, visual plant response rating. To be noted: 500 g ai/ha, postemergence; 0 is no effect, 100 is complete control. In a few lines: as §1
Assay [10] concerns blackgrass (Alopecurus myosuroides). As to the kind of experiment: Test A postemergence, visual plant response rating. To be noted: 500 g ai/ha, postemergence; 0 is no effect, 100 is complete control. In a few lines: as §1
For assay [11], the system named is galium (catchweed bedstraw, Galium aparine). As to the kind of experiment: Test A postemergence, visual plant response rating. To be noted: 500 g ai/ha, postemergence; 0 is no effect, 100 is complete control. In a few lines: as §1
In assay [12] the test system is wheat (Triticum aestivum). As to the kind of experiment: Test A postemergence, visual plant response rating. To be noted: 500 g ai/ha, postemergence; 0 is no effect, 100 is complete control. In a few lines:
as §1

Assay [13] deals with Italian ryegrass (Lolium multiflorum). As to the kind of experiment: Test A postemergence, visual plant response rating. To be noted: 500 g ai/ha, postemergence; 0 is no effect, 100 is complete control. In a few lines: as §1
The test system of assay [14] is pigweed (Amaranthus retroflexus). As to the kind of experiment: Test A postemergence, visual plant response rating. To be noted: 500 g ai/ha, postemergence; 0 is no effect, 100 is complete control. In a few lines: as §1
Assay [15] deals with ragweed (common ragweed, Ambrosia elatior). As to the kind of experiment: Test A postemergence, visual plant response rating. To be noted: 500 g ai/ha, postemergence; 0 is no effect, 100 is complete control. In a few lines: as §1

We go through 1 compound from patent US20210045385A1, “PYRIDAZINONE-SUBSTITUTED KETOXIMES AS HERBICIDES” (FMC Corporation, priority 2018, published 2021).

The structures appear in SMILES notation.

In the case of `CO/N=C(\c1cccc(C)c1)c1c(O)c(C2CC2)nn(C)c1=O` [Compound 27], the “Foxtail, Green plant response rating (0 to 100 scale)” value in [1] and in assay [7] was 0 throughout. The “Kochia plant response rating (0 to 100 scale)” value in the assay on kochia (Kochia scoparia) [2] and in the assay on kochia (Kochia scoparia) [8] was 0 in each case. Also, the entries for the “Barnyardgrass plant response rating (0 to 100 scale)” value in [3] and in assay [9] were 10 and 0, respectively. Moreover, the “Ryegrass, Italian plant response rating (0 to 100 scale)” value was 10 in assay [4] and 20 in assay [13]. In addition, the “Pigweed plant response rating (0 to 100 scale)” value was 0 in assay [5] and 30 in [14]. Also, the “Ragweed plant response rating (0 to 100 scale)” value in [6] is given as 10; in [15], 40. In addition, in the assay on corn (Zea mays), the “Corn plant response rating (0 to 100 scale)” value is 0. Besides, the “Blackgrass plant response rating (0 to 100 scale)” value in assay [10] stood at 10. Also, the “Galium plant response rating (0 to 100 scale)” value in assay [11] is reported as 80. For the same compound, in assay [12], the “Wheat plant response rating (0 to 100 scale)” value came out at 20.
